{"source": "patent US6696276B2", "about": "“Vasopermeability-enhancing conjugates” (priority 1988, dated 2004)", "origin": "cited, not measured here", "data": [{"settings": "as little as", "units": {"amount eliciting erythema and wheal formation": "nmol"}, "values": [{"smiles": "CCCCC/C=C\\C\\C=C/C=C/C=C/[C@@H](SC[C@H](N)C(=O)NCC(=O)O)[C@@H](O)CCCC(=O)O", "note": "[leukotriene D4]", "amount eliciting erythema and wheal formation": 1}, {"smiles": "CCCCC/C=C\\C\\C=C/C=C/C=C/[C@@H](SC[C@H](NC(=O)CC[C@H](N)C(=O)O)C(=O)NCC(=O)O)[C@@H](O)CCCC(=O)O", "note": "[leukotriene C4]", "amount eliciting erythema and wheal formation": 1}, {"smiles": "CCCCC/C=C\\C\\C=C/C=C/C=C/[C@@H](SC[C@H](N)C(=O)O)[C@@H](O)CCCC(=O)O", "note": "[leukotriene E4]", "amount eliciting erythema and wheal formation": 1}]}]}
